Experimental findings from US8673815B2, “Herbicidal composition” (Ishihara Sangyo Kaisha, Ltd., priority 2010, dated 2014) are described below.

A word on the inhibition: it is the share of the control response that was lost under treatment.

SMILES strings stand for the structures.

Assay [1] has as its system bermuda grass (Cynodon dactylon (L.) Pers.). The experiment in a line: Foliar treatment pot test on bermuda grass, visual growth inhibition rate (Test Example 2). The assay is classed as in vivo. The settings on record: in Cynodon dactylon, foliar treatment at 5.0 to 7.0-leaf stage, 21st day after treatment, read-out: Growth inhibition rate (%) of bermuda grass, Measured value. An excerpt:
When the herbicidal activity in a case where two active ingredients are combined, is larger than the simple sum of the respective herbicidal activities of the two active ingredients (the expected activity), it is called a synergistic effect. The activity expected by the combination of two active ingredients can be calculated as follows (Colby S. R., “Weed”, vol. 15, p. 20-22, 1967). E=α+β-(α×β÷100) where α: growth inhibition rate when treated with x (g/ha) of herbicide X, β: growth inhibition rate when treated with y (g/ha) of herbicide Y, E: growth inhibition rate expected when treated with x (g/ha) of herbicide X and y (g/ha) of herbicide Y. Growth inhibition rate (%)=0 (equivalent to the non-treated area) to 100 (complete kill) Upland field soil was put into a 1/1,000,000 ha pot, and seeds of bermuda grass (Cynodon dactylon (L.) Pers.) were sown. When the bermuda grass reached 5.0 to 7.0-leaf stage, predetermined amounts of water dispersible granules comprising flazasulfuron as an active ingredient (trade name: […]) were diluted with water (corresponding to 1,000 L/ha) containing 0.05 vol % of an agricultural adjuvant (trade name: […]) and applied for foliar treatment by a small sprayer. On the 21st day after treatment, the state of growth of the bermuda grass was visually observed to determine the growth inhibition rate. The growth inhibition rate (%) (measured value) and the growth inhibition rate (%) calculated in the same manner as in Test Example 1 are shown in Table 2.

Assay [2] deals with crabgrass (Digitaria sanguinalis.). The experiment in a line: Foliar treatment pot test on crabgrass, visual growth inhibition rate (Test Example 1). The assay is classed as in vivo. The following applies: foliar treatment at 3.8 to 4.0-leaf stage, 28th day after treatment, read-out: Growth inhibition rate (%) of crabgrass, Measured value. The source says: When the herbicidal activity in a case where two active ingredients are combined, is larger than the simple sum of the respective herbicidal activities of the two active ingredients (the expected activity), it is called a synergistic effect. The activity expected by the combination of two active ingredients can be calculated as follows (Colby S. […] E=α+β-(α×β÷100) where α: growth inhibition rate when treated with x (g/ha) of herbicide X, β: growth inhibition rate when treated with y (g/ha) of herbicide Y, E: growth inhibition rate expected when treated with x (g/ha) of herbicide X and y (g/ha) of herbicide Y. Upland field soil was put into a 1/1,000,000 ha pot, and seeds of crabgrass (Digitaria sanguinalis.) were sown. When the crabgrass reached 3.8 to 4.0-leaf stage, predetermined amounts of water dispersible granules comprising flazasulfuron as an active ingredient (trade name: […] manufactured by Ishihara Sangyo Kaisha, Ltd.) were diluted with water (corresponding to 300 L/ha) containing 0.1 vol % of an agricultural adjuvant (trade name: […] manufactured by NIHON NOHYAKU CO., LTD.) and applied for foliar treatment by a small sprayer. On the 28th day after treatment, the state of growth of the crabgrass was visually observed to determine the growth inhibition rate in accordance with the following evaluation standard. The growth inhibition rate (%) (measured value) and the growth inhibition rate (%) (calculated value) calculated by the Colby's formula are shown in Table 1. Growth inhibition rate (%)=0 (equivalent to the non-treated area) to 100 (complete kill)

Take `COc1cc(OC)nc(NC(=O)NS(=O)(=O)c2ncccc2C(F)(F)F)n1` [Flazasulfuron, 1-(4,6-dimethoxypyrimidin-2-yl)-3-(3-trifluoromethyl-2-pyridylsulfonyl)urea]: the inhibition at 10 g/ha in assay [1] was found to be 0%. Also, in assay [1] (dose 200 g/ha), the inhibition at 200 g/ha worked out at 45%. Moreover, in assay [2] (dose 12.5 g/ha), the inhibition at 12.5 g/ha is 87%.
With `COc1cc(OC)nc(NC(=O)NS(=O)(=O)c2ncccc2C(=O)N(C)C)n1` [Nicosulfuron, 2-(4,6-dimethoxypyrimidin-2-ylcarbamoylsulfamoyl)-N,N-dimethylnicotinamide], the inhibition at 10 g/ha in assay [1] came out at 8%. Moreover, the inhibition at 150 g/ha in assay [1] (dose 150 g/ha) was found to be 90%. Besides, the inhibition at 15 g/ha in assay [2] (dose 15 g/ha) worked out at 7%. Moreover, in assay [2] (dose 40 g/ha), the inhibition at 40 g/ha was 22%.
